Test [1] deals with HPV-transformed human middle ear epithelial cell line HMEEC-1. Kind of test: G418 selection of cultured cells. Format: cell-based. The settings on record: G418 0.4 mg/ml, 2 and 7 days post addition. As to the method: (§1) Passage 3 human middle ear epithelial cell cultures (at 50-70% confluence) were infected with 1 ml of virus stock diluted in 9 ml of fresh SFM-HG for 48 hours. The virus was then removed and the medium was replaced with fresh SFM-HG. The cells were allowed to proliferate and once at 70% confluence, they were trypsinized and re-seeded in fresh SFM-HG medium containing G418 (Gibco-BRL, Gaithersburg, […].) at a concentration of 0.4 mg/ml.
(§2) Cells were photographed prior to selection, at 2 days and at 7 days post G418 addition (panels, a, b and c, respectively). […]

The test system of test [2] is primary human middle ear epithelial cells. The test is described as follows: G418 selection of cultured cells. The conditions noted are these: 2 and 7 days post G418 addition. Format: cell-based. As to the method: as §1, §2
For test [3], the system named is MUC2 mRNA. Kind of test: RT-PCR of mucin mRNA expression after retinoic acid. The conditions noted are these: primary cultures. The class given is cell-based, human. As to the method:
Polymerase chain reaction (PCR) assays were performed essentially following the package insert of the commercially available Gene-Amp kit (document No. 55635-6/89, available from Perkin-Elmer/Cetus, Emeryville, Calif.). The following reagents were mixed in a 0.5 mL polypropylene tube and used in performing PCR:
After mixing, the reaction mixture was overlayed with a drop of mineral oil to 30 cycles of PCR, with the following cycle profile: 30 second denaturation, 1 minute annealing and 2 minute extension. The PCR products were run on a 1.2% TAE agarose gel.
Expression of various genes was confirmed using the following PCR primers specific for: […]

For test [4], the system named is MEK1/2 (MAPK kinase). The test is described as follows: Assay for MEK (phospho-MEK1/2 antibody detection). Format: cell-based, human. The conditions noted are these: HMEEC-1 cells treated for 5, 15 and 45 minutes. As to the method: Cells were treated with IL-1 alpha for 5, 15 and 45 minutes. The MEK assay was done according to the manufacturer's protocol (PhosphoPlus, MEK1/2 Antibody Kit; New England BioLabs, Beverly, Mass.). Antibodies specific to the phosphorylated (phospho-MEK1/2) and unphosphorylated (MEK1/2) MEK protein were used to distinguish between the phosphorylated and unphosphorylated forms of the protein.

For `CN[C@@H]1[C@@H](O)[C@@H](O[C@@H]2[C@@H](O)[C@H](O[C@H]3O[C@H]([C@@H](C)O)[C@@H](O)[C@H](O)[C@H]3N)[C@@H](N)C[C@H]2N)OC[C@]1(C)O` [G418], the “Response of cells to G418” value was “resistance” in test [1] and “sensitivity” in test [2].

For the molecule `CC1=C(/C=C/C(C)=C/C=C/C(C)=C/C(=O)O)C(C)(C)CCC1` [Retinoic acid], in test [3], the “MUC2 expression in response to RA” value was “no effect”.

For “IL-1 alpha: cytokine used to treat HMEEC-1 cells”, the “Activation (phosphorylation) of MEK1/2” value in test [4] is on record as “activates”.

These data come from patent US6358688B1, “Immortalized human middle ear epithelial cell lines” (House Ear Institute, priority 1999, dated 2002).
